According to paper PMC6681697, “One-Step ^18F-Labeling and Preclinical Evaluation of Prostate-Specific Membrane Antigen Trifluoroborate Probes for Cancer Imaging” (Journal of Nuclear Medicine, 2019):

Tests used:
PSMA = biological target: T1, PSMA (Homo sapiens, UniProt Q04609); experiment: In vitro competition binding assay on LNCaP cells with ^18F-DCFPyL as radioligand
T1 construct: because it expresses PSMA endogenously and is commonly used to evaluate PSMA-targeting radiotracers; endogenous in cells; host or cells: LNCaP cells
Protocol: LNCaP cells were plated onto a 24-well poly-D-lysine coated plate for 48 h (400,000/well). […] Nonspecific binding was determined in the presence of 10 μM unlabeled DCFPyL. The assay mixtures were incubated for 1 h at 37°C with gentle agitation followed by 2 washes with cold HEPES buffered saline. A trypsin solution (0.25%, 400 μL) was then added to each well to harvest the cells. Radioactivity was measured by γ-counting, and Ki values were calculated using the “1 site—fit Ki” built-in model in Prism 7 (GraphPad).

[1] = Distribution coefficient (LogD7.4), shake flask method; assay type: physicochemical; settings: n-octanol / phosphate buffer 0.1 M pH 7.4; n = 3
Protocol: LogD7.4 values were measured using the shake flask method. Briefly, an aliquot of ^18F-labeled tracer was added to a vial containing 2.5 mL of n-octanol and 2.5 mL of phosphate buffer (0.1 M, pH 7.4). The mixture was vortexed for 2 min and then centrifuged at 3,000g for 10 min. A sample of the n-octanol (0.1 mL) and buffer (0.1 mL) layers was counted using a γ-counter. Values of LogD7.4 were calculated using the following equation: LogD7.4 = log10 [(counts in n-octanol phase)/(counts in buffer phase)].

LNCaP xenografts = experiment: Ex vivo biodistribution and blocking studies in mice bearing LNCaP xenografts; settings: for tumor uptake: LNCaP tumor
Protocol: Imaging and biodistribution experiments were performed using NODSCID IL2RγKO male mice. All experiments were conducted according to the guidelines established by the Canadian Council on Animal Care and approved by the Animal Ethics Committee of the University of British Columbia. Mice were anesthetized by inhalation with 2% isoflurane in oxygen and implanted subcutaneously with 1 × 10^7 LNCaP cells behind the left shoulder. The mice were imaged or used in biodistribution studies once the tumor reached 5–8 mm in diameter (5–6 wk).
For biodistribution and blocking studies, the mice were injected with 1–3 MBq of radiotracer. At 60 min, the mice were anesthetized with 2% isoflurane inhalation and euthanized by CO2 inhalation. Blood was withdrawn by cardiac puncture, and the organs and tissues of interest were collected, weighed, and counted using an automatic γ-counter (PerkinElmer). Uptake values were expressed as the percentage of the injected dose per gram of tissue (%ID/g).
A standard 1-way ANOVA was performed to determine whether statistically significant differences in tumor uptake occurred between radiotracers. Each radiotracer was compared with ^18F-DCFPyL using the Dunnett test (a many-to-one t test comparison). This analysis was also performed for kidney and blood activity and for tumor-to-blood and tumor-to-muscle ratios. Reported P values were adjusted for multiple comparisons. The analysis was performed using Prism 8 (GraphPad). […]
Statistical analyses were performed using GradPad prism 7. Multiple t tests were performed to compare biodistribution in unblocked and blocked mice, multiple comparisons were corrected using the Holm-Sidak method. The difference was considered statistically significant when p value was < 0.05.
Supplemental Table 1 – Complete biodistribution study for compounds [18F]1–3 […]
Tissue 1h 1h blocked 1h 1h blocked 1h 1h blocked
(%ID/g) n = 8 n = 4 n = 6 n = 4 n = 8 n = 5 […]
(1 picture or pasted object on this page, not shown here)

[2] = 1 h blocked (coinjection of DCFPyL 0.5 mg)

T1 sequence (Q04609 whole entry): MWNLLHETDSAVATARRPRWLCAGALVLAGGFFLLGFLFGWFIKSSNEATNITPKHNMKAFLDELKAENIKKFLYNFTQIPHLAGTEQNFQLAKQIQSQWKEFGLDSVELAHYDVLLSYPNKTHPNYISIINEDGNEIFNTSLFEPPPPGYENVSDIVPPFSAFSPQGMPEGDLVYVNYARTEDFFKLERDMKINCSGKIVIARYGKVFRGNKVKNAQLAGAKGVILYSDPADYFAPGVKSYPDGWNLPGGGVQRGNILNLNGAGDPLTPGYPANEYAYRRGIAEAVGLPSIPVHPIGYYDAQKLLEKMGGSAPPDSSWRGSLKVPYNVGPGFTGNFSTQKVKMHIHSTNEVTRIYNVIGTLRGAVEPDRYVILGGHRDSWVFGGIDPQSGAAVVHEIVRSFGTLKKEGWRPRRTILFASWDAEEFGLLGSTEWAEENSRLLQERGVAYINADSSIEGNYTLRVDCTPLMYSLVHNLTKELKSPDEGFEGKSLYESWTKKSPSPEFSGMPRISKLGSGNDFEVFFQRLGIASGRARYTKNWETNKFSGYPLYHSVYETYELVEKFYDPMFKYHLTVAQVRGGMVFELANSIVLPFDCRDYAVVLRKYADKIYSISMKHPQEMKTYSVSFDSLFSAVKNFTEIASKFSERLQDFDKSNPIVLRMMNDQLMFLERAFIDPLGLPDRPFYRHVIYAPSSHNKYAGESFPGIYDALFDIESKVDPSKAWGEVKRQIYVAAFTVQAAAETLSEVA

C[N+](C)(Cc1cn(CC(=O)NC[C@H]2CC[C@H](C(=O)N[C@@H](Cc3ccc4ccccc4c3)C(=O)NCCCC[C@H](NC(=O)N[C@@H](CCC(=O)O)C(=O)O)C(=O)O)CC2)nn1)C[B-](F)(F)F [^18F-5]
Ki (PSMA): 1.14 ± 0.26 nM | logD at 2 min [1]: -3.52 ± 0.21 | intestinal activity compared with ^18F-DCFPyL (LNCaP xenografts; 1 h after injection): significantly higher intestinal activity than ^18F-DCFPyL | T/B (tumor-to-blood ratio) (LNCaP xenografts; 1 h after injection, unblocked): 17.12 ± 5.40 | T/K (tumor-to-kidney ratio) (LNCaP xenografts; 1 h after injection, unblocked): 0.21 ± 0.08 | T/M (tumor-to-muscle ratio) (LNCaP xenografts; 1 h after injection, unblocked): 49.67 ± 28.45 | adrenal uptake (LNCaP xenografts; 1 h after injection, unblocked): 2.89 ± 1.94 %ID/g | blood uptake (LNCaP xenografts; 1 h after injection, unblocked): 0.89 ± 0.42 %ID/g | bone uptake (LNCaP xenografts; 1 h after injection, unblocked): 0.34 ± 0.14 %ID/g | brain uptake (LNCaP xenografts; 1 h after injection, unblocked): 0.04 ± 0.01 %ID/g | fat uptake (LNCaP xenografts; 1 h after injection, unblocked): 0.83 ± 0.33 %ID/g | heart uptake (LNCaP xenografts; 1 h after injection, unblocked): 0.31 ± 0.11 %ID/g | intestine uptake (LNCaP xenografts; 1 h after injection, unblocked): 12.96 ± 4.61 %ID/g | kidney uptake (LNCaP xenografts; 1 h after injection, unblocked): 73.86 ± 35.21 %ID/g | liver uptake (LNCaP xenografts; 1 h after injection, unblocked): 1.14 ± 0.48 %ID/g | lung uptake (LNCaP xenografts; 1 h after injection, unblocked): 1.21 ± 0.48 %ID/g | muscle uptake (LNCaP xenografts; 1 h after injection, unblocked): 0.36 ± 0.18 %ID/g | pancreas uptake (LNCaP xenografts; 1 h after injection, unblocked): 0.30 ± 0.17 %ID/g | spleen uptake (LNCaP xenografts; 1 h after injection, unblocked): 3.21 ± 1.73 %ID/g | stomach uptake (LNCaP xenografts; 1 h after injection, unblocked): 0.37 ± 0.45 %ID/g | testes uptake (LNCaP xenografts; 1 h after injection, unblocked): 0.74 ± 0.55 %ID/g | tumor uptake compared with ^18F-DCFPyL (LNCaP xenografts; 1 h after injection, 1-way ANOVA, Dunnett test): No statistically significant differences | T/B (tumor-to-blood ratio) (LNCaP xenografts; [2]): 0.95 ± 0.10 | T/K (tumor-to-kidney ratio) (LNCaP xenografts; [2]): 0.41 ± 0.09 | T/M (tumor-to-muscle ratio) (LNCaP xenografts; [2]): 2.85 ± 0.70 | adrenal uptake (LNCaP xenografts; [2]): 0.34 ± 0.09 %ID/g | blood uptake (LNCaP xenografts; [2]): 0.44 ± 0.02 %ID/g | bone uptake (LNCaP xenografts; [2]): 0.17 ± 0.03 %ID/g | brain uptake (LNCaP xenografts; [2]): 0.02 ± 0.00 %ID/g | fat uptake (LNCaP xenografts; [2]): 0.16 ± 0.06 %ID/g | heart uptake (LNCaP xenografts; [2]): 0.15 ± 0.00 %ID/g | intestine uptake (LNCaP xenografts; [2]): 12.36 ± 0.55 %ID/g | kidney uptake (LNCaP xenografts; [2]): 1.04 ± 0.14 %ID/g | liver uptake (LNCaP xenografts; [2]): 0.67 ± 0.13 %ID/g | lung uptake (LNCaP xenografts; [2]): 0.39 ± 0.01 %ID/g | muscle uptake (LNCaP xenografts; [2]): 0.15 ± 0.02 %ID/g | pancreas uptake (LNCaP xenografts; [2]): 0.13 ± 0.06 %ID/g | spleen uptake (LNCaP xenografts; [2]): 0.21 ± 0.02 %ID/g | stomach uptake (LNCaP xenografts; [2]): 0.12 ± 0.10 %ID/g | testes uptake (LNCaP xenografts; [2]): 0.24 ± 0.05 %ID/g | tumor uptake (LNCaP xenografts; 1 h after injection, unblocked): 13.96 ± 5.20 %ID/g | tumor uptake (LNCaP xenografts; [2]): 0.41 ± 0.04 %ID/g

O=C(O)CCC(NC(=O)NC(CCCCNC(=O)c1ccc([18F])nc1)C(=O)O)C(=O)O (centres unmarked) [^18F-DCFPyL, 2-(3-{1-carboxy-5-[(6-[^18F]fluoro-pyridine-3-carbonyl)-amino]-pentyl}-ureido)-pentanedioic acid, reference compound]
logD at 2 min [1]: -3.12 ± 0.22 | adrenal uptake (LNCaP xenografts; 1 h after injection, unblocked): 3.02 ± 2.14 %ID/g | blood uptake (LNCaP xenografts; 1 h after injection, unblocked): 0.60 ± 0.13 %ID/g | bone uptake (LNCaP xenografts; 1 h after injection, unblocked): 0.33 ± 0.07 %ID/g | brain uptake (LNCaP xenografts; 1 h after injection, unblocked): 0.03 ± 0.01 %ID/g | fat uptake (LNCaP xenografts; 1 h after injection, unblocked): 1.05 ± 0.64 %ID/g | heart uptake (LNCaP xenografts; 1 h after injection, unblocked): 0.35 ± 0.12 %ID/g | intestine uptake (LNCaP xenografts; 1 h after injection, unblocked): 0.33 ± 0.07 %ID/g | kidney uptake (LNCaP xenografts; 1 h after injection, unblocked): 123.76 ± 37.67 %ID/g | liver uptake (LNCaP xenografts; 1 h after injection, unblocked): 1.82 ± 0.24 %ID/g | lung uptake (LNCaP xenografts; 1 h after injection, unblocked): 1.62 ± 0.68 %ID/g | muscle uptake (LNCaP xenografts; 1 h after injection, unblocked): 0.29 ± 0.12 %ID/g | pancreas uptake (LNCaP xenografts; 1 h after injection, unblocked): 0.58 ± 0.32 %ID/g | spleen uptake (LNCaP xenografts; 1 h after injection, unblocked): 3.98 ± 2.35 %ID/g | stomach uptake (LNCaP xenografts; 1 h after injection, unblocked): 0.12 ± 0.03 %ID/g | testes uptake (LNCaP xenografts; 1 h after injection, unblocked): 0.57 ± 0.21 %ID/g | tumor uptake (LNCaP xenografts; 1 h after injection, unblocked): 11.64 ± 3.52 %ID/g
